Reference: patent US4532255A, “Amidine compounds and anticomplement agent comprising same” (Torii & Co., Ltd., priority 1980, dated 1985)

What was measured:
[1] = target: T1, Trypsin (Bos taurus, UniProt P00760); test: Anti-trypsin activity (hydrolysis of TAME); format: biochemical; details: for IC50: molar concentration inhibiting 50% of TAME hydrolysis, read-out: Trypsin ID50; for inhibition at 10 µM: at 1×10^-5 M, read-out: Trypsin percentage inhibition
T1 sequence (P00760 24-246): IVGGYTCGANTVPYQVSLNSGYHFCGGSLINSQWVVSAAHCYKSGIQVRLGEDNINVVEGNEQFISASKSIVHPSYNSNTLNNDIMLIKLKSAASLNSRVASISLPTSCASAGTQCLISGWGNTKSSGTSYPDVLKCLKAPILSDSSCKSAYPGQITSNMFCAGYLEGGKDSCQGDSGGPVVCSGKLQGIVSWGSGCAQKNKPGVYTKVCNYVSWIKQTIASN
Method: (§1) The anti-trypsin, anti-plasmin, anti-kallikrein and anti-thrombin activities were determined according to the method of Muramatsu et al. [M. Muramatsu, T. Onishi, S. Makino, Y. Hayashi and S. Fujii, J. of Biochem., 58, 214 (1965)]. […] The compound No. corresponds to the compound number shown in Examples.

[2] = target: Plasmin (Homo sapiens, UniProt P00747); test: Anti-plasmin activity (hydrolysis of TAME); format: biochemical; details: for IC50: molar concentration inhibiting 50% of TAME hydrolysis, read-out: Plasmin ID50
Sequence of Plasmin (P00747 581-810 limits assumed, species assumed): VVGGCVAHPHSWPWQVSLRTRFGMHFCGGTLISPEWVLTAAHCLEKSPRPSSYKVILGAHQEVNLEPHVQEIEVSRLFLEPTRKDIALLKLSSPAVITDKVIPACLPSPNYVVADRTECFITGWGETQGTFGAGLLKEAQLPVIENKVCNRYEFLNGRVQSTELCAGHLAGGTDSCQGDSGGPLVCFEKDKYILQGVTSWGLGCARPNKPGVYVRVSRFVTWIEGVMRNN
Sequence of Plasmin (P00747 97-580 partner limits assumed, species assumed): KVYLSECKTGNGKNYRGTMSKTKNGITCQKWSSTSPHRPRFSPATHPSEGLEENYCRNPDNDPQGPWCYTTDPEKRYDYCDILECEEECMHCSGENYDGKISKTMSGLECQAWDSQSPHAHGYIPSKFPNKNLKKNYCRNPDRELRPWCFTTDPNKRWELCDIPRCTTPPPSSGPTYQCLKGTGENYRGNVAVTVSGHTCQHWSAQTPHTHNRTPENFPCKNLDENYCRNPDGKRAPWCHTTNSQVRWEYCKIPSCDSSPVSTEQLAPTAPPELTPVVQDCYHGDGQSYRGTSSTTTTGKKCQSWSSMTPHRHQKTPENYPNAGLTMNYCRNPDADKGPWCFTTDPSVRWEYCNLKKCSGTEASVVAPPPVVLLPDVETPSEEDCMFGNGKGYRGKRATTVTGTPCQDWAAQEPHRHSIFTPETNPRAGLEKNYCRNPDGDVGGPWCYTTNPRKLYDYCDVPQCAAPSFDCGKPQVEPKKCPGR
Method: as §1

[3] = tested on: Kallikrein; test: Anti-kallikrein activity (hydrolysis of TAME); format: biochemical; details: molar concentration inhibiting 50% of TAME hydrolysis; read-out: Kallikrein ID50
Method: (§2) The anti-trypsin, anti-plasmin, anti-kallikrein and anti-thrombin activities were determined according to the method of Muramatsu et al. [M. Muramatsu, T. Onishi, S. Makino, Y. Hayashi and S. Fujii, J. of Biochem., 58, 214 (1965)]. The data summarized in Table 1 are expressed in terms of molar concentration (ID50) of the test compound which inhibits 50% of the activity of each enzyme to hydrolyze TAME (tosylalginine methyl ester). The compound No. corresponds to the compound number shown in Examples.

[4] = target: Thrombin (Homo sapiens, UniProt P00734); test: biochemical; details: molar concentration inhibiting 50% of TAME hydrolysis; read-out: Thrombin ID50
Method: as §2

[5] = target: T2, C1r (Homo sapiens, UniProt P00736); test: Anti-C1 esterase (C1r) activity (hydrolysis of AAME); format: biochemical; details: AAME hydrolysis; read-out: Anti-C1 activity, C1r ID50
T2 sequence (P00736 464-705 limits assumed): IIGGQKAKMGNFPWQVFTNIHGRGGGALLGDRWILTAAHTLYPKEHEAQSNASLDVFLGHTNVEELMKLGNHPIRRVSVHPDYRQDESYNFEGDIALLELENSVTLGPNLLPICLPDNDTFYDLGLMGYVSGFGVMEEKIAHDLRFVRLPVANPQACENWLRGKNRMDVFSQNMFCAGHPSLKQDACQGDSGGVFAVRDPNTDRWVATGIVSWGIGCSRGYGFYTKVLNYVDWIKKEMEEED
T2 sequence (P00736 18-463 partner limits assumed): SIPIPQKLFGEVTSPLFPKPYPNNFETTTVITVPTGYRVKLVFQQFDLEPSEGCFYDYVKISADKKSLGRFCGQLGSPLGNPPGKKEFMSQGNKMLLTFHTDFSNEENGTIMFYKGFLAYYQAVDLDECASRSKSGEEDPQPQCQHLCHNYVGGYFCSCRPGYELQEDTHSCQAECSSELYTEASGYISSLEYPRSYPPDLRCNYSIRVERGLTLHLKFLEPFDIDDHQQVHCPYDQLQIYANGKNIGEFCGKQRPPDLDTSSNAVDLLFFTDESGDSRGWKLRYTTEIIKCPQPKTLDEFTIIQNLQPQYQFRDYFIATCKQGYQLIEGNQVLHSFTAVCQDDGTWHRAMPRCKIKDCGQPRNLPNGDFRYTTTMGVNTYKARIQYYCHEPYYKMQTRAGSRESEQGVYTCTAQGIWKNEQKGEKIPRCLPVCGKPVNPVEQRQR
Method: The anti-Cl esterase ([…]) activity was determined according to the method of Okamura et al. [K. Okamura, M. Muramatsu and S. Fujii, Biochem. Biophys.

[6] = target: T3, C1s (Homo sapiens, UniProt P09871); test: biochemical; details: ATEE hydrolysis; read-out: Anti-C1 activity, C1s ID50
T3 sequence (P09871 438-688 limits assumed): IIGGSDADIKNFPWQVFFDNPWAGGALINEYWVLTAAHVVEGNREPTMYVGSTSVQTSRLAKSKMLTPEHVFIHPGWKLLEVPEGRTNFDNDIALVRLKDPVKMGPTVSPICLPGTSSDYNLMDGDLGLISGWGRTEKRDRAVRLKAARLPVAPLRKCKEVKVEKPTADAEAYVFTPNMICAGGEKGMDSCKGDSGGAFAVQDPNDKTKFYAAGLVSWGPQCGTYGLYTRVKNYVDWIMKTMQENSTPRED
T3 sequence (P09871 16-437 partner limits assumed): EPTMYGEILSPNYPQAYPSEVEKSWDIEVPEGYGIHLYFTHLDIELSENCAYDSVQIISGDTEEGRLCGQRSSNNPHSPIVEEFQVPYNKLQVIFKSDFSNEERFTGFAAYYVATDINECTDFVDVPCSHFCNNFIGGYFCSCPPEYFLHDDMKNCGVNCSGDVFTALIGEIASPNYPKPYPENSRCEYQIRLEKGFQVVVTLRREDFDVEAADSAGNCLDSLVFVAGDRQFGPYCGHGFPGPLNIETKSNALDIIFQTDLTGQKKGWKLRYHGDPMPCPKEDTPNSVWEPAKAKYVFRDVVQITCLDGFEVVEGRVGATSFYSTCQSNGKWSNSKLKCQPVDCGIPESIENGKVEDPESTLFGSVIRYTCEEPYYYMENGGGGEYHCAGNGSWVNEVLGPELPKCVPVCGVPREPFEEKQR
Method: The anti-Cl esterase (Clr, Cls) activity was determined according to the method of Okamura et al. [K. Okamura, M. Muramatsu and S. Fujii, Biochem. Biophys. […] The figures in Table 2 have the following meanings:
Cls: Molar concentration of the test compound which inhibits 50% of the ability of Cls to hydrolyse ATEE (acetyltyrosin ethyl ester).

[7] = tested on: complement mediated hemolysis; test: Inhibition of complement mediated hemolysis; format: cell-based
Method: The principle of this method is based on the fact that hemolysis is caused by the activation of complement, when the latter is added to a complex (immune complex) of erythrocytes and the antibody thereof. The degree of hemolysis varies in proportion to the amount of complement added. Therefore, when a known amount of complement admixed with a C1 esterase inhibitor is used, the hemolysis must be suppressed in proportion to the inhibitory activity.

| SMILES | IC50 [1] | IC50 [2] | IC50 [3] | IC50 [4] | IC50 [5] | IC50 [6] | Inhibition of complement mediated hemolysis (%) ([7]; 1 × 10^-4) | Inhibition of complement mediated hemolysis (%) ([7]; 1 × 10^-5) | Inhibition of complement mediated hemolysis (%) ([7]; 1 × 10^-6) | Inhibition of complement mediated hemolysis (%) ([7]; 1 × 10^-7) | inhibition at 10 µM [1] | inhibition at 10 µM ([2]; at 1×10^-5 M, read-out: Plasmin percentage inhibition) |
| --- | --- | --- | --- | --- | --- | --- | --- | --- | --- | --- | --- | --- |
| N=C(N)c1ccc2cc(OC(=O)c3ccccc3)ccc2c1 [Compound 1, 6-amidino-2-naphthyl benzoate] | 3 µM | 2 µM | 30 µM | 5 µM | 0.4 µM | 0.1 µM | 100% | 100% | 91% | 27% | – | – |
| Cc1ccccc1C(=O)Oc1ccc2cc(C(=N)N)ccc2c1 [Compound 2, 6-amidino-2-naphthyl 2-methylbenzoate] | – | > 10 µM | > 10 µM | > 10 µM | – | – | – | – | – | – | 38% | – |
| Cc1ccc(C(=O)Oc2ccc3cc(C(=N)N)ccc3c2)cc1 [Compound 4] | 1 µM | 0.5 µM | 8 µM | 20 µM | 0.4 µM | 0.07 µM | – | 85% | 37% | 21% | – | – |
| CC(C)(C)c1ccc(C(=O)Oc2ccc3cc(C(=N)N)ccc3c2)cc1 [Compound 5] | 0.3 µM | 2 µM | 9 µM | 3 µM | – | – | – | – | – | – | – | – |
| CC(=O)Oc1ccccc1C(=O)Oc1ccc2cc(C(=N)N)ccc2c1 [Compound 12] | – | – | > 10 µM | > 10 µM | 3 µM | 3 µM | 87% | 55% | 27% | 3% | 24% | 40% |
| COC(=O)c1ccc(C(=O)Oc2ccc3cc(C(=N)N)ccc3c2)cc1 [Compound 14] | 0.3 µM | 0.5 µM | – | 3 µM | 7 µM | 6 µM | 61% | 15% | 1% | 3% | – | – |
| N=C(N)c1ccc2cc(OC(=O)c3ccc([N+](=O)[O-])cc3)ccc2c1 [Compound 18, 6-amidino-2-naphthyl 4-nitrobenzoate] | 10 µM | 3 µM | > 10 µM | 2 µM | 4 µM | 4 µM | 92% | 97% | 56% | 20% | – | – |
| N=C(N)c1ccc2cc(OC(=O)c3ccc(CNC(=O)OCc4ccccc4)cc3)ccc2c1 [Compound 21, 6-amidino-2-naphthyl 4-benzyloxycarbonylaminomethylbenzoate] | 0.6 µM | – | 10 µM | > 10 µM | 0.7 µM | 0.5 µM | 0% | 66% | 14% | 0% | – | – |
| CN(C)c1cccc(C(=O)Oc2ccc3cc(C(=N)N)ccc3c2)c1 [Compound 23, 6-amidino-2-naphthyl 3-dimethylaminobenzoate] | 20 µM | 20 µM | 100 µM | 10 µM | – | – | – | – | – | – | – | – |
